From patent US12370232B2, “Use of polyphenol containing sugar cane extracts for preventing, improving or treating a skin condition” (priority 2017, dated 2025)
Each block holds one compound with its values, some of them ahead of it.

Legend:
tyrosinase = assay: Tyrosinase inhibition assay; format: biochemical
Experimental: A tyrosinase inhibition assay was performed to determine the tyrosinase inhibition potential of an extract derived from sugar cane of the present disclosure. […]
To measure tyrosinase inhibition potential of an extract derived from sugar cane of the present disclosure, tyrosinase was added to a mixture of a test sample solution containing an extract derived from sugar cane, L-DOPA, and phosphate buffer (pH 6.8), which was then incubated at 37° C. for 5 hours. Tyrosinase activity was determined through the amount of dopachrome production in the mixture, which was measured by optical density at 450 nm. Dopachrome is a cyclization product of L-DOPA, an intermediate in the biosynthesis of melanin.

MMP-1 = MMP-1 inhibition assay in UV irradiated human skin cells (zymography); format: cell-based
Experimental: The UV protection function of an extract derived from sugar cane of the present disclosure on skin using human skin cells was investigated. MMP-1, one of the key matrix metalloproteinases (MMPs) that is viewed as an indicator for tissue integrity breakdown and wrinkle formation, was used as a biomarker for skin damage. MMP-1 inhibitors have been related to skin aging prevention and therapy. An MMP-1 inhibition assay was performed to determine the MMP-1 inhibition potential of an extract derived from sugar cane of the present disclosure. […] In order to determine the UV protection ability of a test sample of an extract derived from sugar cane of the present disclosure, human skin cells were treated with (and without) the test sample followed by UV irradiation. The treated cells were then disrupted by subjection to several freeze-thaw cycles, and the proteins were obtained by centrifugation. Using the collected lysate, zymography was used to determine the enzymatic activity of secreted MMP-1. In the zymography, the proteins were separated by electrophoresis under denaturing (sodium dodecyl sulfate, SDS), nonreducing conditions. The separation occurred in a polyacrylamide gel containing a collagen substrate that was co-polymerized with the acrylamide. […] After electrophoresis, the gel was washed and subsequently incubated in an appropriate activation buffer. During this incubation, the concentrated, renatured MMPs in the gel digested the collagen substrate. After incubation, the gel was stained with Coomassie® Blue, and the MMPs were detected as clear bands against a blue background of undegraded substrate. The clear bands in the gel was quantified by densitometry. Avobenzone, a known MMP-1 inhibitor, was used as an assay control.

Structure (SMILES): O=c1cc(CO)occ1O [Kojic Acid, Kojic acid]
- Concentration inducing the maximum inhibition (tyrosinase): 1000 µM
- Inhibition (%) Result (tyrosinase; Conc. 3.91 uM): −11.66%
- Inhibition (%) Result (tyrosinase; Conc. 7.81 uM): −9.33%
- Inhibition (%) Result (tyrosinase; Conc. 15.63 uM): −4.66%
- Inhibition (%) Result (tyrosinase; Conc. 31.25 uM): 1.23%
- Inhibition (%) Result (tyrosinase; Conc. 62.50 uM): 12.35%
- Inhibition (%) Result (tyrosinase; Conc. 125.00 uM): 30.45%
- Inhibition (%) Result (tyrosinase; Conc. 250.00 uM): 52.40%
- Inhibition (%) Result (tyrosinase; Conc. 500.00 uM): 75.45%
- Inhibition (%) Result (tyrosinase; Conc. 1000.00 uM): 90.12%
- Maximum inhibition achieved (tyrosinase; at 1000 μM): 90.12%

- EC50 (MMP-1; effective concentration at 50% of maximal inhibition): 1.22%
Structure (SMILES): COc1ccc(C(=O)CC(=O)c2ccc(C(C)(C)C)cc2)cc1 [avobenzone, Avobenzone]
- Concentration inducing the maximum inhibition (MMP-1): 10%
- MMP-1 inhibition (%) Average (MMP-1; Conc 0.31 %): 5.0%
- MMP-1 inhibition (%) Replicate 2 (MMP-1; Conc 0.31 %): 5.0%
- MMP-1 inhibition (%) Average (MMP-1; Conc 0.63 %): 44.1%
- MMP-1 inhibition (%) Replicate 1 (MMP-1; Conc 0.63 %): 22.51%
- MMP-1 inhibition (%) Replicate 2 (MMP-1; Conc 0.63 %): 65.72%
- MMP-1 inhibition (%) Average (MMP-1; Conc 1.25 %): 48.5%
- MMP-1 inhibition (%) Replicate 1 (MMP-1; Conc 1.25 %): 56.96%
- MMP-1 inhibition (%) Replicate 2 (MMP-1; Conc 1.25 %): 39.99%
- MMP-1 inhibition (%) Average (MMP-1; Conc 2.50 %): 79.8%
- MMP-1 inhibition (%) Replicate 1 (MMP-1; Conc 2.50 %): 77.44%
- MMP-1 inhibition (%) Replicate 2 (MMP-1; Conc 2.50 %): 82.22%
- MMP-1 inhibition (%) Average (MMP-1; Conc 5.00 %): 90.7%
- MMP-1 inhibition (%) Replicate 1 (MMP-1; Conc 5.00 %): 85.34%
- MMP-1 inhibition (%) Replicate 2 (MMP-1; Conc 5.00 %): 96.03%
- MMP-1 inhibition (%) Average (MMP-1; Conc 10.00 %): 97.5%
- MMP-1 inhibition (%) Replicate 1 (MMP-1; Conc 10.00 %): 95.44%
- MMP-1 inhibition (%) Replicate 2 (MMP-1; Conc 10.00 %): 99.52%
- Maximum inhibition achieved (MMP-1; at 10%): 97.50%
